The subject of the first experiment is Jurkat cells. Put plainly: Adaptation to G2 cell cycle arrest (G1 increment) in X-ray pre-arrested Jurkat cells, flow cytometry. It is filed as cell-based, human. Conditions: Homo sapiens, Jurkat, 24 h, Table 2; concentration causing half-maximal increase of % cells in G1 phase (G1 increment); Jurkat pre-arrested by 10 Gy X-ray, 24 hours with compound. The method, boiled down:
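Jurkat cells were G2-arrested by 10 Gy X-ray irradiation and held 24 h in 10% FCS/RPMI1640 at 37 °C. They were then exposed to compounds for a further 24 h. Propidium iodide staining and flow cytometry gave the %G1 cells, and IC50 (μM) is the concentration giving a half-maximal G1 increment.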
For orientation: In flow cytometry, cells or beads pass a laser one at a time.
Regarding `CC1=C(C)C(=O)N(Nc2ccc(C(F)(F)F)c(Cc3ccccc3)n2)C1=O` [Compound S01762, 3,4-dimethyl-1-{[6-benzyl-5-(trifluoromethyl)(2-pyridyl)]amino}azoline-2,5-dione], the IC50 was determined as 625 nM.

`CON(C)C(=O)CCC1=C(C)C(=O)N(Nc2ccc(C(F)(F)F)c(Cl)n2)C1=O` [Compound S01796, 3-(1-{[6-chloro-5-(trifluoromethyl)(2-pyridyl)]amino}-4-methyl-2,5-dioxoazolin-3-yl)-N-methoxy-N-methylpropanamide]: the IC50 stood at 78 nM.

On to `CC1=C(C)C(=O)N(Nc2cc(CN3CCN(C(=O)c4ccc(C)cc4C)CC3)c3ccc(Br)cc3n2)C1=O` [Compound S01800, 1-{[4-({4-[(2,4-dimethylphenyl)carbonyl]piperazinyl}methyl)-7-bromo (2-quinolyl)]amino}-3,4-dimethylazoline-2,5-dione], for which the IC50 is 625 nM.

As to `COc1ccc(C(=O)N2CCN(Cc3cc(NN4C(=O)C(C)=C(C)C4=O)nc4cc(Br)ccc34)CC2)cc1` [Compound S01801, 1-{[7-bromo-4-({4-[(4-methoxyphenyl)carbonyl]piperazinyl}methyl) (2-quinolyl)]amino}-3,4-dimethylazoline-2,5-dione], the IC50 stood at 625 nM.

Regarding `CC(=O)N(c1ccc(C(F)(F)F)c(Cl)n1)N1C(=O)C(C)=C(CO)C1=O` [Compound S01820, N-[6-chloro-5-(trifluoromethyl)(2-pyridyl)]-N-[4-(hydroxymethyl)-3-methyl-2,5-dioxoazolinyl]acetamide], the IC50 was 625 nM.

For the molecule `CC1=C(C)C(=O)N(Nc2cc(CN3CCN(S(=O)(=O)c4ccccc4)CC3)c3ccc(Br)cc3n2)C1=O` [Compound S01822, 1-[(7-bromo-4-{[4-(phenylsulfonyl)piperazinyl]methyl}(2-quinolyl))amino]-3,4-dimethylazoline-2,5-dione], the IC50 came out at 625 nM.

With `CCOC(=O)CCC1=C(C)C(=O)N(Nc2ccc(C(F)(F)F)c(Cl)n2)C1=O` [Compound S01861, Ethyl 3-(1-{[6-chloro-5-(trifluoromethyl)(2-pyridyl)]amino}-4-methyl-2,5-dioxoazolin-3-yl) propanoate], the IC50 stood at 50 nM.

On to `CC1=C(C)C(=O)N(Nc2cc(CNC3CCN(C(=O)OC(C)(C)C)CC3)c3ccc(Br)cc3n2)C1=O` [Compound S01862, tert-butyl 4-[({2-[(3,4-dimethyl-2,5-dioxoazolinyl)amino]-7-bromo-4-quinolyl}methyl)amino]piperidinecarboxylate], for which the IC50 turned out to be 937 nM.

Take `CC1=C(C)C(=O)N(Nc2cc(CN3CCC(NC(=O)OC(C)(C)C)C3)c3ccc(Br)cc3n2)C1=O` (stereo not shown) [Compound S01864, N-[1-({2-[(3,4-dimethyl-2,5-dioxoazolinyl)amino]-7-bromo(4-quinolyl)}methyl)pyrrolidin-3-yl] (tert-butoxy)carboxamide]: the IC50 turned out to be 468 nM.

In the case of `COC(=O)CCC1=C(C)C(=O)N(Nc2cc(CN3CCN(C(=O)OC(C)(C)C)CC3)c3ccc(Br)cc3n2)C1=O` [Compound S01865, Methyl 3-(1-{[4-({4-[(tert-butyl)oxycarbonyl]piperazinyl}methyl)-7-bromo (2-quinolyl)]amino}-4-methyl-2,5-dioxoazolin-3-yl)propanoate], the IC50 came out at 312 nM.

`CC1=C(C)C(=O)N(Nc2cc(CN3CCN(C(=O)c4ccc(F)cc4)CC3)c3ccc(Br)cc3n2)C1=O` [Compound S01877, 1-{[7-bromo-4-({4-[(4-fluorophenyl)carbonyl]piperazinyl}methyl) (2-quinolyl)]amino}-3,4-dimethylazoline-2,5-dione]: the IC50 turned out to be 468 nM.

Take `CC1=C(C)C(=O)N(Nc2cc(CN3CCN(C(=O)c4ccccc4Cl)CC3)c3ccc(Br)cc3n2)C1=O` [Compound S01878, 1-{[7-bromo-4-({4-[(2-chlorophenyl)carbonyl]piperazinyl}methyl) (2-quinolyl)]amino}-3,4-dimethylazoline-2,5-dione]: the IC50 amounted to 234 nM.

On to `COc1ccccc1C(=O)N1CCN(Cc2cc(NN3C(=O)C(C)=C(C)C3=O)nc3cc(Br)ccc23)CC1` [Compound S01879, 1-{[7-bromo-4-({4-[(2-methoxyphenyl)carbonyl]piperazinyl}methyl) (2-quinolyl)]amino}-3,4-dimethylazoline-2,5-dione], for which the IC50 is 78 nM.

On to `CC1=C(C)C(=O)N(Nc2cc(CN3CCN(C(=O)c4ccc(N(C)C)cc4)CC3)c3ccc(Br)cc3n2)C1=O` [Compound S01880, 1-({4-[(4-{[4-(dimethylamino)phenyl]carbonyl}piperazinyl)methyl]-7-bromo (2-quinolyl)}amino)-3,4-dimethylazoline-2,5-dione], for which the IC50 was 312 nM.

Turning to `CNC(=O)CCC1=C(C)C(=O)N(Nc2ccc(C(F)(F)F)c(Cl)n2)C1=O` [Compound S01883, 3-(1-{[6-chloro-5-(trifluoromethyl)(2-pyridyl)]amino}-4-methyl-2,5-dioxoazolin-3-yl)-N-methylpropanamide], the half-inhibitory concentration (IC50) was found to be 234 nM.

For `COc1cccc(C(=O)N2CCN(Cc3cc(NN4C(=O)C(C)=C(C)C4=O)nc4cc(Br)ccc34)CC2)c1` [Compound S01925, 1-{[7-bromo-4-({4-[(3-methoxyphenyl)carbonyl]piperazinyl}methyl) (2-quinolyl)]amino}-3,4-dimethylazoline-2,5-dione], the IC50 came out at 156 nM.

As to `CC1=C(C)C(=O)N(Nc2cc(CN3CCN(C4CCN(C(=O)OC(C)(C)C)CC4)CC3)c3ccc(Br)cc3n2)C1=O` [Compound S01928, tert-butyl 4-[4-({2-[(3,4-dimethyl-2,5-dioxoazolinyl)amino]-7-bromo-4-quinolyl}methyl)piperazinyl]piperidinecarboxylate], the IC50 stood at 938 nM.

Turning to `CC1=C(C)C(=O)N(Nc2nc(Cl)c(C(F)(F)F)cc2Br)C1=O` [Compound S01981, 1-{[3-bromo-6-chloro-5-(trifluoromethyl)(2-pyridyl)]amino}-3,4-dimethylazoline-2,5-dione], the IC50 came to 78 nM.

Staying with this experiment, now noted: Homo sapiens, Jurkat, 24 h, Table 3; concentration causing half-maximal increase of % cells in G1 phase (G1 increment); Jurkat pre-arrested by 10 Gy X-ray, 24 hours with compound.
As to `CC1=C(CC(=O)OC(C)(C)C)C(=O)N(Nc2ccc(C(F)(F)F)c(Cl)n2)C1=O` [Compound S02225, tert-butyl 2-(1-{[6-chloro-5-(trifluoromethyl) (2-pyridyl)]amino}-4-methyl-2,5-dioxoazolin-3-yl)acetate], the IC50 came out at 30 nM.

For the molecule `CCC(C)OC(=O)CCC1=C(C)C(=O)N(Nc2ccc(C(F)(F)F)c(Cl)n2)C1=O` (stereo not shown) [Compound S02264, Methylpropyl 3-(1-{[6-chloro-5-(trifluoromethyl) (2-pyridyl)]amino}-4-methyl-2,5-dioxoazolin-3-yl) propanoate], the IC50 was found to be 40 nM.

With `CCOCC1=C(C)C(=O)N(Nc2ccc(C(F)(F)F)c(Cl)n2)C1=O` [Compound S02366, 1-{[6-chloro-5-(trifluoromethyl) (2-pyridyl)]amino}-3-(ethoxymethyl)-4-methylazoline-2,5-dione], the IC50 was 40 nM.

On to `CCCCC1=C(C)C(=O)N(Nc2ccc(C(F)(F)F)c(Cl)n2)C1=O` [Compound S03448, 3-butyl-1-{[6-chloro-5-(trifluoromethyl) (2-pyridyl)]amino}-4-methylazoline-2,5-dione], for which the IC50 came out at 156 nM.

As for `CC1=C(CCC2(C)OCCO2)C(=O)N(Nc2ccc(C(F)(F)F)c(Cl)n2)C1=O` [Compound S03456, 1-{[6-chloro-5-(trifluoromethyl) (2-pyridyl)]amino}-4-methyl-3-[2-(2-methyl (1,3-dioxolan-2-yl))ethyl]azoline-2,5-dione], the IC50 was 156 nM.

On to `CCCC(O)CCC1=C(C)C(=O)N(Nc2ccc(C(F)(F)F)c(Cl)n2)C1=O` (stereo not shown) [Compound S03552, 1-{[6-chloro-5-(trifluoromethyl)(2-pyridyl)]amino}-4-(3-hydroxyhexyl)-3-methylazoline-2,5-dione], for which the IC50 was determined as 60 nM.

Regarding `COCCOCC1=C(C)C(=O)N(Nc2ccc(C(F)(F)F)c(Cl)n2)C1=O` [Compound S03742, 1-{[6-chloro-5-(trifluoromethyl)(2-pyridyl)]amino}-3-[(2-methoxyethoxy)methyl]-4-methylazoline-2,5-dione], the IC50 was found to be 120 nM.

Take `CCC(O)CCC1=C(C)C(=O)N(Nc2ccc(C(F)(F)F)c(Cl)n2)C1=O` (stereo not shown) [Compound S03745, 1-{[6-chloro-5-(trifluoromethyl)(2-pyridyl)]amino}-4-(3-hydroxypentyl)-3-methylazoline-2,5-dione]: the IC50 stood at 60 nM.

Turning to `CC1=C(COC(C)(C)C)C(=O)N(Nc2ccc(C(F)(F)F)c(Cl)n2)C1=O` [Compound S03873, 4-[(tert-butoxy)methyl]-1-{[6-chloro-5-(trifluoromethyl)(2-pyridyl)]amino}-3-methylazoline-2,5-dione], the IC50 is 20 nM.

Regarding `CC1=C(CCOCC(C)C)C(=O)N(Nc2ccc(C(F)(F)F)c(Cl)n2)C1=O` [Compound S03955, 1-{[6-chloro-5-(trifluoromethyl)(2-pyridyl)]amino}-4-methyl-3-[2-(2-methylpropoxy)ethyl]azoline-2,5-dione], the IC50 amounted to 60 nM.

Take `CC1=C(CCOCCC(C)C)C(=O)N(Nc2ccc(C(F)(F)F)c(Cl)n2)C1=O` [Compound S03956, 1-{[6-chloro-5-(trifluoromethyl)(2-pyridyl)]amino}-4-methyl-3-[2-(3-methylbutoxy)ethyl]azoline-2,5-dione]: the concentration for half-maximal inhibition (IC50) was 156 nM.

As to `CCOCCC1=C(C)C(=O)N(Nc2ccc(C(F)(F)F)c(Cl)n2)C1=O` [Compound S03960, 1-{[6-chloro-5-(trifluoromethyl)(2-pyridyl)]amino}-3-(2-ethoxyethyl)-4-methylazoline-2,5-dione], the IC50 came out at 40 nM.

In the case of `CC1=C(COCC(C)(C)C)C(=O)N(Nc2ccc(C(F)(F)F)c(Cl)n2)C1=O` [Compound S03962, 3-[(2,2-dimethylpropoxy)methyl]-1-{[6-chloro-5-(trifluoromethyl) (2-pyridyl)]amino}-4-methylazoline-2,5-dione], the IC50 is less than 19 nM.

Broadly, the IC50 is the midpoint of a concentration-inhibition curve.

The values are drawn from US8415357B2 (Canbas Co., Ltd., priority 2007, dated 2013).
